One data set concerns CAL-27. In words: cells. It is filed as functional, cell-based. The following applies: Homo sapiens, CAL-27, 72 h.
A further data set has as its system SCC-9. In words: cells. It is filed as functional, cell-based. As to conditions: Homo sapiens, SCC-9, 72 h.
Data set [1] in a line: Stability in mouse blood assessed as compound recovery measured at 25 degC for 4 hrs.
Data set [2] in a line: Stability in mouse blood assessed as compound remaining measured at 20 degC for 8 hrs.
A short description of data set [3]: Stability in mouse blood assessed as compound remaining measured at - 80 degC for 4 months.
Data set [4] in a line: Half life in C57BL/6 mouse at 500 mg/kg, iv administered as Antitumor B. The following applies: in vivo.
Data set [5] in a line: Volume of distribution in C57BL/6 mouse at 500 mg/kg, iv administered as Antitumor B. The following applies: in vivo.
A short description of data set [6]: Clearance in C57BL/6 mouse at 500 mg/kg, iv administered as Antitumor B. The following applies: in vivo.
The nature of data set [7]: Half life in C57BL/6 mouse at 500 mg/kg, po. As to conditions: in vivo.
Data set [8] can be described thus: Half life in C57BL/6 mouse at 4000 mg/kg, po. As to conditions: in vivo.
The nature of data set [9]: Half life in C57BL/6 mouse at 500 mg/kg, ip qd measured after 7 days. The following applies: in vivo, 168 h.
The conditions of data set [10]: mouse, in vivo, iv, 500 mg/kg.
The conditions of data set [11]: in vivo, po, 500 mg/kg, 24 h.
For data set [12] the following is noted: in vivo, po, 4000 mg/kg, 24 h.
For data set [13] the following is noted: in vivo, ip, 500 mg/kg, 24 h.
The conditions of data set [14]: C57BL/6, mouse, in vivo, ip, 500 mg/kg, 168 h.
The conditions of data set [15]: in vivo, ip, 500 mg/kg, 24 h. The source holds these as a separate data set.
For data set [16] the following is noted: in vivo, ip, 500 mg/kg, 168 h.
The conditions of data set [17]: in vivo, ip, 500 mg/kg, 168 h. This is another data set of the same source.
Data set [18] is described as follows: in vivo. The following applies: C57BL/6, mouse, iv, 500 mg/kg.
Data set [19] can be described thus: in vivo. As to conditions: C57BL/6, mouse, iv, 500 mg/kg. The source holds these as a separate data set.
Data set [20] is described as follows: in vivo. The following applies: C57BL/6, mouse, po, 500 mg/kg.
The nature of data set [21]: in vivo. As to conditions: C57BL/6, mouse, po, 500 mg/kg. The source holds these as a separate data set.
The nature of data set [22]: in vivo. As to conditions: C57BL/6, mouse, po, 500 mg/kg. This is another data set of the same source.
Data set [23] is described as follows: in vivo. As to conditions: C57BL/6, mouse, po, 500 mg/kg. The source holds these as a separate data set.
Data set [24] in a line: in vivo. The following applies: C57BL/6, mouse, po, 4000 mg/kg.
Data set [25] can be described thus: in vivo. The following applies: C57BL/6, mouse, po, 4000 mg/kg. The source holds these as a separate data set.
A short description of data set [26]: in vivo. As to conditions: C57BL/6, mouse, po, 4000 mg/kg. The source holds these as a separate data set.
Data set [27] can be described thus: in vivo. As to conditions: C57BL/6, mouse, po, 4000 mg/kg. The source holds these as a separate data set.
The nature of data set [28]: in vivo. The following applies: C57BL/6, mouse, ip, 500 mg/kg.
Data set [29] can be described thus: in vivo. The following applies: C57BL/6, mouse, ip, 500 mg/kg. The source holds these as a separate data set.
A short description of data set [30]: in vivo. The following applies: C57BL/6, mouse, ip, 500 mg/kg. This is another data set of the same source.
Data set [31] is described as follows: in vivo. The following applies: C57BL/6, mouse, ip, 500 mg/kg. This is another data set of the same source.
The conditions of data set [32]: mouse, in vivo, iv, 500 mg/kg, 24 h.
The conditions of data set [33]: mouse, in vivo, po, 500 mg/kg.

Values after ≈ are worked out from the molar mass of the structure shown.

The values below come from ChEMBL document CHEMBL5036337 (J Nat Prod, 2021).

Usually IC50 stands for the concentration that gives 50% inhibition. In general, fraction remaining refers to what is left of the initial amount, in per cent. Broadly, the half-life is the time in which the quantity being followed falls by half. Broadly, the Vd is a proportionality between amount in the body and measured concentration, not a real space. High values mean extensive tissue distribution, low ones confinement near the circulation. As usually defined, the AUC is concentration integrated over time. Read a high AUC as more exposure. One may read the Tmax as the time from dosing to the highest level. One may read the Cmax as the maximum level reached in the sampled fluid or tissue. For orientation: MRT last means the average time that molecules of a dose stay in the body. What is called AUC(0-inf) is total exposure, with the tail of the curve extrapolated. Read a high AUC(0-inf) as more exposure. Broadly, the MRT is a mean duration of stay, worked out from the concentration-time curve.

`O=c1[nH]cc(F)c(=O)[nH]1` [FLUOROURACIL]: the IC50 was determined as 0.5 µg/mL (≈ 3.84 µM) in the data set on CAL-27 and 12.7 µg/mL (≈ 97.6 µM) with SCC-9.

Consider `O=C1CCC[C@@H]2[C@H]3CCCN4CCC[C@@H](CN12)[C@@H]34` [MATRINE], for which the values for the IC50 in the data set on CAL-27 and in the data set on SCC-9 were 21 µg/mL (≈ 84.6 µM) and over 100 µg/mL, respectively. The share remaining at 4 h in data set [1] came to 85%. Also, the amount remaining at 8 h in [2] was found to be 85%. Also, in data set [3], the amount remaining at 2920 h came out at 85%. Also, the half-life in data set [4] was 7.5 h; in data set [7], 3.8 h; in data set [8] it was 7.5 h. Moreover, in data set [5], the Vd was 9.1 L/kg. Besides, the CL in data set [6] (C57BL/6, mouse) is 13 mL/min/kg. For the same compound, the t1/2 in [9] (C57BL/6, mouse) is 8.2 h. Also, the AUC came out at 5170.7 ng·h/mL in [10]; 120.5 ng·h/mL in [11] (C57BL/6, mouse); 3667.7 ng·h/mL in [12] (C57BL/6, mouse); 2254 ng·h/mL in [17] (C57BL/6, mouse). Further, the Tmax in [13] (C57BL/6, mouse) is 0.2 h; in data set [14], 0.5 h; in “in vivo [20]”, 0.4 h; in the data set “in vivo [24]”, 0.7 h. In addition, the Cmax stood at 815.9 ng/mL in [15] (C57BL/6, mouse); 551.8 ng/mL in data set [16] (C57BL/6, mouse); 3930 ng/mL in “in vivo [18]”; 53.8 ng/mL in “in vivo [21]”; 709 ng/mL in the data set “in vivo [25]”. Moreover, the MRT last was 1.8 h in “in vivo [19]”, 3.6 h in the data set “in vivo [23]” and 4.5 h in the data set “in vivo [27]”. Also, the AUC(0-inf) in “in vivo [22]” came to 124 ng·h/mL; in the data set “in vivo [26]”, 5370 ng·h/mL. Also, in “in vivo [28]”, the area under the curve (AUC) at 24 h was 1480 ng·h/mL. For the same compound, in “in vivo [29]”, the AUC at 168 h is 1650 ng·h/mL. The mean residence time (MRT) at 24 h in the data set “in vivo [30]” turned out to be 5.3 h. In addition, the MRT at 168 h in the data set “in vivo [31]” was 8 h.

`Oc1ccc2c(c1)OCC1c3cc4c(cc3OC21)OCO4` (configuration not stated): the IC50 in the data set with CAL-27 was 11.5 µg/mL (≈ 40.5 µM); in the data set on SCC-9, 94.9 µg/mL (≈ 334 µM). Further, in data set [1], the fraction remaining at 4 h was 85%. In addition, the fraction remaining at 8 h in data set [2] was 85%. For the same compound, in data set [3], the fraction remaining at 2920 h amounted to 85%. The half-life is 4.9 h in [4] and 3.5 h in data set [8]. In [5], this compound returned a Vd of 4.1 L/kg. The same compound gave a CL in [6] (mouse) of 10 mL/min/kg. In data set [9] (mouse), the t1/2 amounted to 2.2 h. The AUC in data set [32] was 68.9 ng·h/mL; in data set [10] it was 71.5 ng·h/mL; in [11] (mouse), 0.4 ng·h/mL; in data set [12] (mouse) it was 25.5 ng·h/mL; in data set [17] (mouse), 51.8 ng·h/mL. Also, the F in [33] was 4.6%. Further, the time to peak (Tmax) in data set [13] (mouse) was 0.2 h; in “in vivo [20]”, 0.6 h; in “in vivo [24]”, 0.7 h. The Cmax in data set [15] (mouse) was 15.6 ng/mL; in data set [16] (mouse), 17.2 ng/mL; in “in vivo [18]” it was 67.5 ng/mL; in the data set “in vivo [21]” it was 0.5 ng/mL; in the data set “in vivo [25]”, 16.4 ng/mL. For the same compound, the MRT last in the data set “in vivo [19]” stood at 3 h; in the data set “in vivo [23]”, 0.6 h; in “in vivo [27]”, 3.6 h. Also, in the data set “in vivo [26]”, the AUC(0-inf) amounted to 27.5 ng·h/mL. In “in vivo [28]”, this compound gave an AUC at 24 h of 5.6 ng·h/mL. This compound also came in with an area under the curve (AUC) at 168 h in the data set “in vivo [29]” of 47.4 ng·h/mL. In “in vivo [30]”, this compound came in with an MRT at 24 h of 0.3 h. This compound had a mean residence time (MRT) at 168 h in “in vivo [31]” of 8.4 h.

In the case of `COc1c2ccccc2nc2occc12` [DICTAMNINE], the IC50 in the data set on CAL-27 was 19.7 µg/mL (≈ 98.9 µM); in the data set on SCC-9 it was 27.8 µg/mL (≈ 140 µM). Moreover, the fraction remaining at 4 h in data set [1] was 85%. For the same compound, the amount remaining at 8 h in data set [2] was 85%. The amount remaining at 2920 h in data set [3] turned out to be 85%. Besides, in [5], the Vd amounted to 0.6 L/kg. The same compound came in with an AUC at 24 h in the data set “in vivo [28]” of 1 ng·h/mL. This compound had an AUC at 168 h in “in vivo [29]” of 23.2 ng·h/mL. In “in vivo [30]”, this compound registered a mean residence time MRT at 24 h of 0.4 h. In the data set “in vivo [31]”, the MRT at 168 h came out at 11.7 h.

As to `CC1=C2C(=O)O[C@@H](c3ccoc3)[C@]2(C)CCC1` [FRAXINELLONE], the IC50 was determined as 22.4 µg/mL (≈ 96.4 µM) in the data set on CAL-27 and 43.4 µg/mL (≈ 187 µM) in the data set with SCC-9. The fraction remaining at 4 h in [1] came out at 85%. Further, in data set [2], the amount remaining at 8 h is 85%. For the same compound, the share remaining at 2920 h in [3] worked out at 85%. For the same compound, the half-life in data set [4] was 5.2 h. The compound further registered a Vd in [5] of 2.9 L/kg. Moreover, in [6] (mouse), the CL was determined as 6.7 mL/min/kg. Moreover, the AUC in data set [32] was 95.2 ng·h/mL; in data set [10] it was 166.8 ng·h/mL; in data set [12] (mouse) it was 1.1 ng·h/mL. The same compound gave a F in [33] of 0.2%. For the same compound, the results for the Cmax (in data set [15] (mouse); in “in vivo [18]”; in the data set “in vivo [25]”) were 4.1 ng/mL, 34.3 ng/mL and 4.7 ng/mL, respectively. In addition, the MRT last in the data set “in vivo [19]” amounted to 3.2 h; in “in vivo [27]” it was 0.4 h. Also, in “in vivo [24]”, the Tmax worked out at 0.5 h. In addition, in the data set “in vivo [28]”, the AUC at 24 h is 2.7 ng·h/mL. The same compound came in with an MRT at 24 h in “in vivo [30]” of 0.6 h.
